Source: patent US9464082B2, “Aryl and arylalkyl substituted pyrazolyl and pyrimidinyl tricyclic enones as antioxidant inflammation modulators” (AbbVie Inc., priority 2014, dated 2016)

Tested on: IFNγ-Induced NO Production
Experiment: Nitric Oxide Suppression Assay (Suppression of IFNγ-Induced NO Production)
Format: cell-based
Conditions: RAW264.7; RAW 264.7 mouse macrophage cells; 2 hour pre-treatment with compound (3 μM to 0.3 nM, 10 point curve); 20 ng/mL interferon gamma, ~18 hour; Griess detection; n=2-3 in duplicates
How it was run: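 Griess-based absorbance read (520–550 nm) of supernatant after RAW 264.7 mouse macrophages received 10-point compound dilutions (3 μM–0.3 nM, DMSO ≤1%) for 2 h, then 20 ng/mL IFNγ for ~18 h at 37 °C. Signal normalised to IFNγ-only peak; IC50 fitted to mean of n=2-3 duplicates.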

SMILES	IC50 [nM]
COC(=O)c1ccc([C@]23C=C(C#N)C(=O)[C@@H](C)[C@@H]2CCc2c(-c4cncn4C)nc(C)nc23)cc1 [Example 175, methyl 4-[(6aS,7S,10aR)-9-cyano-2,7-dimethyl-4-(1-methyl-1H-imidazol-5-yl)-8-oxo-6,6a,7,8-tetrahydrobenzo[h]quinazolin-10a(5H)-yl]benzoate]	2
C[C@@H]1C(=O)C(C#N)=C[C@]2(c3cccc(F)c3)c3n[nH]cc3CC[C@@H]12 [Example 53, (5aS,6S,9aR)-9a-(3-fluorophenyl)-6-methyl-7-oxo-4,5,5a,6,7,9a-hexahydro-2H-benzo[g]indazole-8-carbonitrile]	31.7
C[C@@H]1C(=O)C(C#N)=C[C@]2(c3cccc(C(=O)O)c3)c3ncncc3CC[C@@H]12 [Example 60, 3-[(6aS,7S,10aR)-9-cyano-7-methyl-8-oxo-6,6a,7,8-tetrahydrobenzo[h]quinazolin-10a(5H)-yl]benzoic acid]	> 3000
Cc1nc(-c2ccc(=O)n(C)c2)c2c(n1)[C@@]1(c3ccccc3)C=C(C#N)C(=O)[C@@H](C)[C@@H]1CC2 [Example 44, (6aS,7S,10aR)-2,7-dimethyl-4-(1-methyl-6-oxo-1,6-dihydropyridin-3-yl)-8-oxo-10a-phenyl-5,6,6a,7,8,10a-hexahydrobenzo[h]quinazoline-9-carbonitrile]	51.1
COC(=O)c1ccc([C@]23C=C(C#N)C(=O)[C@@H](C)[C@@H]2CCc2c[nH]nc23)cc1 [Example 63, methyl 4-[(5aS,6S,9aR)-8-cyano-6-methyl-7-oxo-2,4,5,5a,6,7-hexahydro-9aH-benzo[g]indazol-9a-yl]benzoate]	26.6
C[C@@H]1C(=O)C(C#N)=C[C@]2(c3ccccc3)c3nn(Cc4ccccc4)cc3CC[C@@H]12 (single isomer, unassigned) [Example 56]	93.2
Cc1nc(-c2cncnc2)c2c(n1)[C@@]1(c3cccc(F)c3)C=C(C#N)C(=O)[C@@H](C)[C@@H]1CC2 [Example 69, (6aS,7S,10aR)-10a-(3-fluorophenyl)-2,7-dimethyl-8-oxo-4-(pyrimidin-5-yl)-5,6,6a,7,8,10a-hexahydrobenzo[h]quinazoline-9-carbonitrile]	35.8
COc1ccc([C@]23C=C(C#N)C(=O)[C@@H](C)[C@@H]2CCc2c(-c4cncnc4)nc(C)nc23)cc1 [Example 67, (6aS,7S,10aR)-10a-(4-methoxyphenyl)-2,7-dimethyl-8-oxo-4-(pyrimidin-5-yl)-5,6,6a,7,8,10a-hexahydrobenzo[h]quinazoline-9-carbonitrile]	21.8
C[C@@H]1C(=O)C(C#N)=C[C@]2(c3ccccc3)c3n[nH]c(-c4ccc(CCO)cc4)c3CC[C@@H]12 [Example 115, (5aS,6S,9aR)-3-[4-(2-hydroxyethyl)phenyl]-6-methyl-7-oxo-9a-phenyl-4,5,5a,6,7,9a-hexahydro-2H-benzo[g]indazole-8-carbonitrile]	23.6
C[C@@H]1C(=O)C(C#N)=C[C@]2(c3cccc(OCc4ccccc4)c3)c3ncncc3CC[C@@H]12 [Example 128, (6aS,7S,10aR)-10a-[3-(benzyloxy)phenyl]-7-methyl-8-oxo-5,6,6a,7,8,10a-hexahydrobenzo[h]quinazoline-9-carbonitrile]	7.82
Cc1nc(-c2ccc(-c3cncnc3)cc2)c2c(n1)[C@@]1(c3ccccc3)C=C(C(N)=O)C(=O)[C@@H](C)[C@@H]1CC2 [Example 145, (6aS,7S,10aR)-2,7-dimethyl-8-oxo-10a-phenyl-4-[4-(pyrimidin-5-yl)phenyl]-5,6,6a,7,8,10a-hexahydrobenzo[h]quinazoline-9-carboxamide]	> 1000
C[C@@H]1C(=O)C(C#N)=C[C@]2(c3ccccc3)c3n[nH]c(-c4cccc(CCO)c4)c3CC[C@@H]12 [Example 116, (5aS,6S,9aR)-3-[3-(2-hydroxyethyl)phenyl]-6-methyl-7-oxo-9a-phenyl-4,5,5a,6,7,9a-hexahydro-2H-benzo[g]indazole-8-carbonitrile]	9.25
C[C@@H]1C(=O)C(C#N)=C[C@]2(c3ccccc3)c3nc(-c4cnccn4)ncc3CC[C@@H]12 [Example 84, (6aS,7S,10aR)-7-methyl-8-oxo-10a-phenyl-2-(pyrazin-2-yl)-5,6,6a,7,8,10a-hexahydrobenzo[h]quinazoline-9-carbonitrile]	6.72
C[C@@H]1C(=O)C(C#N)=C[C@]2(c3ccccc3)c3nn(C)c(-c4cccc(-c5cccc(NS(C)(=O)=O)c5)c4)c3CC[C@@H]12 [Example 150, N-{3′-[(5aS,6S,9aR)-8-cyano-2,6-dimethyl-7-oxo-9a-phenyl-4,5,5a,6,7,9a-hexahydro-2H-benzo[g]indazol-3-yl]biphenyl-3-yl}methanesulfonamide]	2.26
Cc1nc(-c2cn[nH]c2)c2c(n1)[C@@]1(c3ccccc3)C=C(C#N)C(=O)[C@@H](C)[C@@H]1CC2 [Example 34, (6aS,7S,10aR)-2,7-dimethyl-8-oxo-10a-phenyl-4-(1H-pyrazol-4-yl)-5,6,6a,7,8,10a-hexahydrobenzo[h]quinazoline-9-carbonitrile]	2.86
C[C@@H]1C(=O)C(C#N)=C[C@]2(c3ccccc3)c3[nH]nc(-c4ccccc4)c3CC[C@@H]12 (racemic) [Example 6, rac-(5aS,6S,9aR)-6-methyl-7-oxo-3,9a-diphenyl-4,5,5a,6,7,9a-hexahydro-1H-benzo[g]indazole-8-carbonitrile]	37.5
COc1ccccc1-c1nc(OC)c2c(n1)[C@@]1(c3ccccc3)C=C(C#N)C(=O)[C@@H](C)[C@@H]1CC2 [Example 10, (6aS,7S,10aR)-4-methoxy-2-(2-methoxyphenyl)-7-methyl-8-oxo-10a-phenyl-5,6,6a,7,8,10a-hexahydrobenzo[h]quinazoline-9-carbonitrile]	22.5
C[C@@H]1C(=O)C(C#N)=C[C@]2(c3ccccc3)c3nc(-c4ccc(O)cc4)ncc3CC[C@@H]12 [Example 114, (6aS,7S,10aR)-2-(4-hydroxyphenyl)-7-methyl-8-oxo-10a-phenyl-5,6,6a,7,8,10a-hexahydrobenzo[h]quinazoline-9-carbonitrile]	5
Cc1nc(-c2cnn(C)c2)c2c(n1)[C@@]1(c3ccccc3)C=C(C#N)C(=O)[C@@H](C)[C@@H]1CC2 [Example 35, (6aS,7S,10aR)-2,7-dimethyl-4-(1-methyl-1H-pyrazol-4-yl)-8-oxo-10a-phenyl-5,6,6a,7,8,10a-hexahydrobenzo[h]quinazoline-9-carbonitrile]	4.86
C[C@@H]1C(=O)C(C#N)=C[C@]2(c3ccccc3)c3c(c(-c4cncnc4)nn3C)CC[C@@H]12 [Example 179, (5aS,6S,9aR)-1,6-dimethyl-7-oxo-9a-phenyl-3-(pyrimidin-5-yl)-4,5,5a,6,7,9a-hexahydro-1H-benzo[g]indazole-8-carbonitrile]	1.24
COC(=O)c1ccc(-c2cccc(-c3nc(C)nc4c3CC[C@H]3[C@H](C)C(=O)C(C#N)=C[C@]43c3ccccc3)c2)cc1 [Example 134, methyl 3′-[(6aS,7S,10aR)-9-cyano-2,7-dimethyl-8-oxo-10a-phenyl-5,6,6a,7,8,10a-hexahydrobenzo[h]quinazolin-4-yl]biphenyl-4-carboxylate]	6.9
Cc1nc(-c2cnn(CCO)c2)c2c(n1)[C@@]1(c3ccccc3)C=C(C#N)C(=O)[C@@H](C)[C@@H]1CC2 [Example 127, (6aS,7S,10aR)-4-[1-(2-hydroxyethyl)-1H-pyrazol-4-yl]-2,7-dimethyl-8-oxo-10a-phenyl-5,6,6a,7,8,10a-hexahydrobenzo[h]quinazoline-9-carbonitrile]	2.27
C[C@@H]1C(=O)C(C#N)=C[C@]2(c3ccccc3)c3ncncc3CC[C@@H]12 [Example 1, (6aS,7S,10aR)-7-methyl-8-oxo-10a-phenyl-5,6,6a,7,8,10a-hexahydrobenzo[h]quinazoline-9-carbonitrile]	5.35
C[C@@H]1C(=O)C(C#N)=C[C@]2(c3ccccc3)c3nn(C(=O)CO)cc3CC[C@@H]12 [Example 42, (5aS,6S,9aR)-2-glycoloyl-6-methyl-7-oxo-9a-phenyl-4,5,5a,6,7,9a-hexahydro-2H-benzo[g]indazole-8-carbonitrile]	34.2
C[C@@H]1C(=O)C(C#N)=C[C@]2(c3ccccc3)c3nn(C(=O)CNC(=O)OC(C)(C)C)cc3CC[C@@H]12 [Example 39, tert-butyl {2-[(5aS,6S,9aR)-8-cyano-6-methyl-7-oxo-9a-phenyl-4,5,5a,6,7,9a-hexahydro-2H-benzo[g]indazol-2-yl]-2-oxoethyl}carbamate]	53.6
COc1cccc([C@]23C=C(C#N)C(=O)[C@@H](C)[C@@H]2CCc2cnn(C)c23)c1 (racemic) [Example 5, rac-(5aS,6S,9aR)-9a-(3-methoxyphenyl)-1,6-dimethyl-7-oxo-4,5,5a,6,7,9a-hexahydro-1H-benzo[g]indazole-8-carbonitrile]	41.3
Cc1nc(-c2cncn2C)c2c(n1)[C@@]1(c3ccccc3)C=C(C#N)C(=O)[C@@H](C)[C@@H]1CC2 [Example 17, (6aS,7S,10aR)-2,7-dimethyl-4-(1-methyl-1H-imidazol-5-yl)-8-oxo-10a-phenyl-5,6,6a,7,8,10a-hexahydrobenzo[h]quinazoline-9-carbonitrile]	3.25
Cc1nc(-c2ccc(-c3[nH]ncc3Br)cc2)c2c(n1)[C@@]1(c3ccc(F)cc3)C=C(C#N)C(=O)[C@@H](C)[C@@H]1CC2 [Example 81, (6aS,7S,10aR)-4-[4-(4-bromo-1H-pyrazol-5-yl)phenyl]-10a-(4-fluorophenyl)-2,7-dimethyl-8-oxo-5,6,6a,7,8,10a-hexahydrobenzo[h]quinazoline-9-carbonitrile]	35
COc1ccc([C@]23C=C(C#N)C(=O)[C@@H](C)[C@@H]2CCc2c(-c4ccc(-c5[nH]ncc5Br)cc4)nc(C)nc23)cc1 [Example 79, (6aS,7S,10aR)-4-[4-(4-bromo-1H-pyrazol-5-yl)phenyl]-10a-(4-methoxyphenyl)-2,7-dimethyl-8-oxo-5,6,6a,7,8,10a-hexahydrobenzo[h]quinazoline-9-carbonitrile]	45.7
